Values joined by “and” are separate entries in the source; they are usually repeats but may differ in a detail not shown here. Identical values can stand only once. Toxic doses and inconclusive results are not listed.
Tested on: L1210 leukemia ip in BDF1 mice, survival T/C
Assay: NCI In Vivo Anticancer Drug Screen. Data for tumor model L1210 Leukemia (intraperitoneal) in B6D2F1 (BDF1) mice
Conditions: endpoint: mean survival time, higher = longer survival
Outline: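 Antitumor effect is assessed in tumor-bearing animals. Survival in the compound arm is compared with a vehicle-dosed control arm and expressed as their quotient.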

[1] = dose: 75.0 mg/kg/injection, schedule: Q01DX001 (ip), vehicle: saline
[2] = dose: 150.0 mg/kg/injection, schedule: Q01DX001 (ip), vehicle: saline
[3] = dose: 300.0 mg/kg/injection, schedule: Q01DX001 (ip), vehicle: saline
[4] = dose: 100.0 mg/kg/injection, schedule: Q04DX003 (ip), vehicle: saline
[5] = dose: 200.0 mg/kg/injection, schedule: Q01DX009 (ip), vehicle: saline
[6] = dose: 200.0 mg/kg/injection, schedule: Q04DX003 (ip), vehicle: saline
[7] = dose: 400.0 mg/kg/injection, schedule: Q04DX003 (ip), vehicle: saline
[8] = dose: 100.0 mg/kg/injection, schedule: Q04DX003 (ip), vehicle: Klucel (hydroxypropylcellulose) (HPC)
[9] = dose: 200.0 mg/kg/injection, schedule: Q04DX003 (ip), vehicle: Klucel (hydroxypropylcellulose) (HPC)
[10] = dose: 400.0 mg/kg/injection, schedule: Q04DX003 (ip), vehicle: Klucel (hydroxypropylcellulose) (HPC)
[11] = dose: 100.0 mg/kg/injection, schedule: Q01DX009 (ip), vehicle: Klucel (hydroxypropylcellulose) (HPC)
[12] = dose: 200.0 mg/kg/injection, schedule: Q01DX009 (ip), vehicle: Klucel (hydroxypropylcellulose) (HPC)
[13] = dose: 400.0 mg/kg/injection, schedule: Q01DX009 (ip), vehicle: Klucel (hydroxypropylcellulose) (HPC)
[14] = dose: 100.0 mg/kg/injection, schedule: Q04DX003 (ip), vehicle: saline with Tween-80
[15] = dose: 200.0 mg/kg/injection, schedule: Q04DX003 (ip), vehicle: saline with Tween-80
[16] = dose: 400.0 mg/kg/injection, schedule: Q04DX003 (ip), vehicle: saline with Tween-80
[17] = dose: 100.0 mg/kg/injection, schedule: Q01DX001 (ip), vehicle: saline
[18] = dose: 200.0 mg/kg/injection, schedule: Q01DX001 (ip), vehicle: saline
[19] = dose: 400.0 mg/kg/injection, schedule: Q01DX001 (ip), vehicle: saline
[20] = dose: 100.0 mg/kg/injection, schedule: Q01DX009 (ip), vehicle: saline

With `CCCN(CCC)CC(O)c1ccc2cccc3c2c1CC3` (stereo not given) the T/C [1] was 104 % of control, the T/C [2] was 98 % of control and the T/C [3] was 95 % of control.

With `Nc1c(F)c(F)c(N)c(F)c1F` the T/C (dose: 100.0 mg/kg/injection, schedule: Q01DX001 (ip), vehicle: acetone) was 93 % of control and the T/C (dose: 400.0 mg/kg/injection, schedule: Q01DX001 (ip), vehicle: acetone) was 89 % of control.

`COc1ccc(/C=C2/CSC/C(=C/c3ccc(OC)c(OC)c3)C2=O)cc1OC` was tested, and the T/C [4] was 103 % of control, the T/C [5] was 86 % of control and the T/C [6] was 94 % of control. For the same compound, the T/C [7] was 94 % of control.

In the case of `O=C(Nc1ccc(F)c(Cl)c1)N(CCO)C1CCCCC1`, the T/C [8] is reported as 101 % of control, the T/C [9] is reported as 100 % of control and the T/C [10] is reported as 92 % of control.

For `Cc1nc(Cl)c2c(n1)Oc1nc(C)nc(Cl)c1C2c1ccc(Cl)cc1`, the T/C (dose: 50.0 mg/kg/injection, schedule: Q04DX003 (ip), vehicle: Klucel (hydroxypropylcellulose) (HPC)) was 97 % of control, the T/C [11] was 96 % of control and the T/C [8] was 97 % of control. For the same compound, the T/C [12] was 97 % of control, the T/C [9] was 101 % of control and the T/C [13] was 107 % of control. For the same compound, the T/C [10] was 95 % of control.

With `Cn1c(=O)c2c(ncn2C)n(C)c1=O` (tested in a mixture with another compound) the T/C [14] was 98 % of control, the T/C [15] was 101 % of control and the T/C [16] was 114 % of control.

In the case of `CC(=O)C1CCC2C3CCC4CC(O)CCC4(C)C3CCC12C#N` (stereo not given), the T/C (dose: 100.0 mg/kg/injection, schedule: Q01DX009 (sc), vehicle: steriod suspending solution) is reported as 101 % of control, the T/C (dose: 100.0 mg/kg/injection, schedule: Q04DX003 (sc), vehicle: steriod suspending solution) is reported as 93 % of control and the T/C (dose: 200.0 mg/kg/injection, schedule: Q01DX009 (sc), vehicle: steriod suspending solution) is reported as 108 % of control. For the same compound, the T/C (dose: 200.0 mg/kg/injection, schedule: Q04DX003 (sc), vehicle: steriod suspending solution) was 102 % of control, the T/C (dose: 400.0 mg/kg/injection, schedule: Q01DX009 (sc), vehicle: steriod suspending solution) was 108 % of control and the T/C (dose: 400.0 mg/kg/injection, schedule: Q04DX003 (sc), vehicle: steriod suspending solution) was 104 % of control.

`CCCCCCCCCCCCC1C(=O)NC(=S)NC1=O` was tested, and the T/C (dose: 75.0 mg/kg/injection, schedule: Q01DX001 (ip), vehicle: other) was 97 % of control and 100 % of control, the T/C (dose: 150.0 mg/kg/injection, schedule: Q01DX001 (ip), vehicle: other) was 101 % of control and 113 % of control and the T/C (dose: 300.0 mg/kg/injection, schedule: Q01DX001 (ip), vehicle: other) was 103 % of control.

`[Br][Nd]([Br])[Br]` was tested, and the T/C (dose: 50.0 mg/kg/injection, schedule: Q04DX003 (ip), vehicle: saline) was 96 % of control, the T/C [4] was 91 % of control and the T/C [6] was 97 % of control. For the same compound, the T/C [7] was 86 % of control.

`O=[N+]([O-])c1ccc(O)c(C2CCCCC2)c1` was tested, and the T/C (dose: 100.0 mg/kg/injection, schedule: Q01DX009 (ip), vehicle: gum acacia) was 92 % of control, the T/C (dose: 200.0 mg/kg/injection, schedule: Q01DX009 (ip), vehicle: gum acacia) was 87 % of control and the T/C (dose: 400.0 mg/kg/injection, schedule: Q01DX009 (ip), vehicle: gum acacia) was 86 % of control.

For `O=[N+]([O-])C(=C\c1ccccc1)/C(=C(/Br)[N+](=O)[O-])c1ccccc1`, the T/C [1] was 95 % of control and the T/C [2] was 92 % of control.

With `CCCCCCCCCCCCCCc1sc(N)nc1-c1ccccc1` the T/C [17] was 98 % of control, the T/C [18] was 98 % of control and the T/C [19] was 95 % of control.

`Cc1cccc(C)c1NC(=O)Nc1ncccn1` was tested, and the T/C (dose: 25.0 mg/kg/injection, schedule: Q04DX002 (ip), vehicle: Klucel (hydroxypropylcellulose) (HPC)) was 99 % of control, the T/C (dose: 50.0 mg/kg/injection, schedule: Q04DX002 (ip), vehicle: Klucel (hydroxypropylcellulose) (HPC)) was 96 % of control and the T/C [11] was 103 % of control. For the same compound, the T/C (dose: 100.0 mg/kg/injection, schedule: Q04DX002 (ip), vehicle: Klucel (hydroxypropylcellulose) (HPC)) was 105 % of control, the T/C [12] was 104 % of control and the T/C (dose: 200.0 mg/kg/injection, schedule: Q04DX002 (ip), vehicle: Klucel (hydroxypropylcellulose) (HPC)) was 97 % of control. For the same compound, the T/C [13] was 101 % of control and the T/C (dose: 400.0 mg/kg/injection, schedule: Q04DX002 (ip), vehicle: Klucel (hydroxypropylcellulose) (HPC)) was 93 % of control.

For `NCC1OC(OC2C(N)CC(N)C(O)C2OC2OC(CO)C(O)C2O)C(N)C(O)C1O` (stereo not given), the T/C [1] was 92 % of control, the T/C (dose: 75.0 mg/kg/injection, schedule: Q01DX009 (ip), vehicle: saline) was 98 % of control and the T/C [17] was 100 % of control. For the same compound, the T/C [4] was 100 % of control, the T/C [2] was 97 % of control and the T/C (dose: 150.0 mg/kg/injection, schedule: Q01DX009 (ip), vehicle: saline) was 96 % of control. The T/C [18] was 100 % of control, the T/C [6] was 95 % of control and the T/C [3] was 93 % of control. The T/C (dose: 300.0 mg/kg/injection, schedule: Q01DX009 (ip), vehicle: saline) was 98 % of control, the T/C [19] was 100 % of control and the T/C [7] was 95 % of control.

In the case of `C/C=C/C1OCCO1`, the T/C (dose: 100.0 mg/kg/injection, schedule: Q01DX009 (ip), vehicle: acetone) is reported as 92 % of control.

For `CN=C(NC1CCCCC1)c1ccc(NC(=O)c2ccc(C(=O)Nc3ccc(C(=NC)NC4CCCCC4)cc3)cc2)cc1`, the T/C (dose: 1.88 mg/kg/injection, schedule: Q01DX Z (ip), vehicle: saline) was 102 % of control, the T/C (dose: 3.75 mg/kg/injection, schedule: Q01DX Z (ip), vehicle: saline) was 100 % of control and the T/C (dose: 7.5 mg/kg/injection, schedule: Q01DX Z (ip), vehicle: saline) was 102 % of control.

With `O=NN1CCCC1C(=O)O` (stereo not given) the T/C [17] was 101 % of control and the T/C [18] was 101 % of control and 93 % of control.

With `CCS(=O)(=O)C1C2C=CC(O2)C1S(=O)(=O)CC` (stereo not given) the T/C [8] was 102 % of control, the T/C [9] was 101 % of control and the T/C [10] was 96 % of control.

`CC1(N(O)C(=O)NCCCl)CCCCC1` was tested, and the T/C (dose: 100.0 mg/kg/injection, schedule: Q01DX001 (ip), vehicle: saline with Tween-80) was 109 % of control, the T/C (dose: 200.0 mg/kg/injection, schedule: Q01DX001 (ip), vehicle: saline with Tween-80) was 102 % of control and the T/C (dose: 400.0 mg/kg/injection, schedule: Q01DX001 (ip), vehicle: saline with Tween-80) was 93 % of control.

For `CCN(CC)CCOc1ccc(C)cc1`, the T/C (dose: 50.0 mg/kg/injection, schedule: Q01DX009 (ip), vehicle: saline) was 97 % of control and the T/C [20] was 89 % of control.

With `CCCCNCCC(SS)c1ccc(Cl)cc1` (stereo not given) the T/C (dose: 50.0 mg/kg/injection, schedule: Q01DX009 (ip), vehicle: saline with Tween-80) was 106 % of control, the T/C (dose: 100.0 mg/kg/injection, schedule: Q01DX009 (ip), vehicle: saline with Tween-80) was 92 % of control and the T/C [14] was 88 % of control. For the same compound, the T/C [15] was 93 % of control.

In the case of `O=c1[nH]nc(CCc2ccc([N+](=O)[O-])cc2)o1`, the T/C [20] is reported as 93 % of control, the T/C [5] is reported as 94 % of control and the T/C (dose: 400.0 mg/kg/injection, schedule: Q01DX009 (ip), vehicle: saline) is reported as 104 % of control.

`COC(=O)c1cn2c(c1C(=O)OC)CCC2` was tested, and the T/C (dose: 12.5 mg/kg/injection, schedule: Q01DX009 (ip), vehicle: other) was 93 % of control, the T/C (dose: 25.0 mg/kg/injection, schedule: Q01DX009 (ip), vehicle: other) was 96 % of control and the T/C (dose: 50.0 mg/kg/injection, schedule: Q01DX009 (ip), vehicle: other) was 222 % of control. For the same compound, the T/C (dose: 59.0 mg/kg/injection, schedule: Q01DX009 (ip), vehicle: other) was 94 % of control and 113 % of control, the T/C (dose: 89.0 mg/kg/injection, schedule: Q01DX009 (ip), vehicle: other) was 99 % of control and 102 % of control and the T/C (dose: 100.0 mg/kg/injection, schedule: Q01DX009 (ip), vehicle: other) was 459 % of control. The T/C (dose: 133.0 mg/kg/injection, schedule: Q01DX009 (ip), vehicle: other) was 93 % of control and 106 % of control and the T/C (dose: 300.0 mg/kg/injection, schedule: Q01DX009 (ip), vehicle: other) was 116 % of control.

For `CON=C1CCC(C(C)(C)C)CC1` (stereo not given), the T/C (dose: 75.0 mg/kg/injection, schedule: Q01DX001 (ip), vehicle: carboxymethylcellulose (CMC)) was 106 % of control.

For `CC1=CP(=O)(Oc2ccc([N+](=O)[O-])cc2)CC1` (stereo not given), the T/C [1] was 102 % of control.

For `CC(C)N(C)c1ccc(N=Nc2cc(Cl)ccc2Cl)cc1`, the T/C [14] was 98 % of control, the T/C [15] was 102 % of control and the T/C [16] was 104 % of control.

`COc1ccc(CCNC(=S)NC(=O)c2ccc(Cl)c(Cl)c2)cc1OC` was tested, and the T/C [11] was 91 % of control, the T/C [12] was 86 % of control and the T/C [13] was 93 % of control.

— PubChem BioAssay AID248 (DTP/NCI, 2004)
